Patent US12257237B2 (priority 2017, dated 2025)
“And” between values parts separate entries of the source, which are not always exact repeats. Equal values may be shown once.

Tested on: TC-71 Ewing sarcoma
Assay: Antitumour activity in TC-71 Ewing sarcoma xenograft model
Type: in vivo, Athymic nude mice
Details: for optimal T/C: day 21; for mice still in CR at the end of the experiment: after second cycle
Procedure: Experiments were performed with female Athymic nude mice, 9-10 weeks old obtained from Harlan Laboratories (Udine, Italy). They were maintained under Specific Pathogen Free conditions with constant temperature and humidity, according to the institutional guidelines.
Tumour growth mice was monitored two/three times a week (depending on tumour growth rate, to avoid unnecessary stress to the animals) by Vernier caliper. Mice were sacrificed when tumour reached a mean weight of 2±0.5 gr. The antitumour activity will be expressed as T/C %, where T and C were the mean tumour weight of treated and control groups, respectively. Mice were monitored daily and weighted at least two times a week. Tolerability was evaluated on the basis of body weight loss (BWL) and clinical observation.
Statistical analysis was performed with GraphPad Prism version 6.01 software (GraphPad software, Inc., La Jolla, CA, USA). ANOVA test was performed to evaluate if there were statistically significant differences between treated and control groups.
5×10^6 TC-71 cells were inoculated subcutaneously in the right flank of mice. The growing tumour masses were measured with the aid of a Vernier caliper, and the tumour weights (1 mm^3=1 mg) were calculated by the formula: length×(width) 2/2. When tumour load achieved about 100 mg, mice were randomized into the experimental groups and treatment started.

[1] = EDO80: 80 mg/kg i.v. single dose, day 9 from inoculum
[2] = EDO80: 80 mg/kg i.v. single dose, day 11 from inoculum
[3] = EDO80: 80 mg/kg i.v. single dose, day 14 from inoculum
[4] = EDO80: 80 mg/kg i.v. single dose, day 16 from inoculum
[5] = EDO80: 80 mg/kg i.v. single dose, day 18 from inoculum
[6] = EDO80: 80 mg/kg i.v. single dose, day 21 from inoculum
[7] = EDO80: 80 mg/kg i.v. single dose, day 23 from inoculum
[8] = EDO80: 80 mg/kg i.v. single dose, day 25 from inoculum
[9] = EDO80: 80 mg/kg i.v. single dose, day 28 from inoculum
[10] = EDO80: 80 mg/kg i.v. single dose, day 30 from inoculum
[11] = EDO80: 80 mg/kg i.v. single dose, day 32 from inoculum
[12] = EDO80: 80 mg/kg i.v. single dose, day 35 from inoculum
[13] = EDO80: 80 mg/kg i.v. single dose, day 38 from inoculum
[14] = EDO80: 80 mg/kg i.v. single dose, day 42 from inoculum
[15] = EDO80: 80 mg/kg i.v. single dose, day 45 from inoculum
[16] = EDO80: 80 mg/kg i.v. single dose, day 49 from inoculum

## Cn1c(CCCCCCC(=O)NO)nc2cc(N(CCCl)CCCl)ccc21 [EDO-S101, 7-(5-(bis(2-chloroethyl)amino)-1-methyl-1H-benzo[d]imidazol-2-yl)-N-hydroxyheptanamide]
40 mg/kg i.v. q7dx3
  optimal T/C: 24%
40 mg/kg q7dx3
  tumour regression: no tumour regression in tumour volume was observed
60 mg/kg
  effect of a second cycle of treatments on tumour re-growth: further delayed tumour re-growth without being able to arrest it
60 mg/kg group
  complete regressions (CR): 3 out of 8
  tumour regression: sustained tumour regressions in all of the treated mice
  mice still in CR at the end of the experiment: two
60 mg/kg i.v. q7dx3
  optimal T/C: 1%
80 mg/kg
  effect of a second cycle of treatments on tumour re-growth: further delayed tumour re-growth without being able to arrest it
80 mg/kg group
  complete regressions (CR): 4 out of 8
  tumour regression: sustained tumour regressions in all of the treated mice
  mice still in CR at the end of the experiment: one
80 mg/kg i.v. single dose
  optimal T/C: 0.5%
EDO40: 40 mg/kg i.v. q7dx3, day 9 from inoculum
  TC-71 tumour weight, mean: 103.5 mg
EDO40: 40 mg/kg i.v. q7dx3, day 11 from inoculum
  TC-71 tumour weight, mean: 180.4 mg
EDO40: 40 mg/kg i.v. q7dx3, day 14 from inoculum
  TC-71 tumour weight, mean: 180.6 mg
EDO40: 40 mg/kg i.v. q7dx3, day 16 from inoculum
  TC-71 tumour weight, mean: 236.4 mg
EDO40: 40 mg/kg i.v. q7dx3, day 18 from inoculum
  TC-71 tumour weight, mean: 319.3 mg
EDO40: 40 mg/kg i.v. q7dx3, day 21 from inoculum
  TC-71 tumour weight, mean: 348.4 mg
EDO40: 40 mg/kg i.v. q7dx3, day 23 from inoculum
  TC-71 tumour weight, mean: 514.5 mg
EDO40: 40 mg/kg i.v. q7dx3, day 25 from inoculum
  TC-71 tumour weight, mean: 548.0 mg
EDO40: 40 mg/kg i.v. q7dx3, day 28 from inoculum
  TC-71 tumour weight, mean: 733.8 mg
EDO40: 40 mg/kg i.v. q7dx3, day 30 from inoculum
  TC-71 tumour weight, mean: 1055.5 mg
EDO40: 40 mg/kg i.v. q7dx3, day 32 from inoculum
  TC-71 tumour weight, mean: 1376.1 mg
EDO60: 60 mg/kg i.v. q7dx3, day 9 from inoculum
  TC-71 tumour weight, mean: 106.1 mg
EDO60: 60 mg/kg i.v. q7dx3, day 11 from inoculum
  TC-71 tumour weight, mean: 130.4 mg
EDO60: 60 mg/kg i.v. q7dx3, day 14 from inoculum
  TC-71 tumour weight, mean: 76.1 mg
EDO60: 60 mg/kg i.v. q7dx3, day 16 from inoculum
  TC-71 tumour weight, mean: 39.2 mg
EDO60: 60 mg/kg i.v. q7dx3, day 18 from inoculum
  TC-71 tumour weight, mean: 24.2 mg
EDO60: 60 mg/kg i.v. q7dx3, day 21 from inoculum
  TC-71 tumour weight, mean: 14.1 mg
EDO60: 60 mg/kg i.v. q7dx3, day 23 from inoculum
  TC-71 tumour weight, mean: 19.1 mg
EDO60: 60 mg/kg i.v. q7dx3, day 25 from inoculum
  TC-71 tumour weight, mean: 23.2 mg
EDO60: 60 mg/kg i.v. q7dx3, day 28 from inoculum
  TC-71 tumour weight, mean: 22.9 mg
EDO60: 60 mg/kg i.v. q7dx3, day 30 from inoculum
  TC-71 tumour weight, mean: 43.7 mg
EDO60: 60 mg/kg i.v. q7dx3, day 32 from inoculum
  TC-71 tumour weight, mean: 119.4 mg
EDO60: 60 mg/kg i.v. q7dx3, day 35 from inoculum
  TC-71 tumour weight, mean: 155.1 mg
EDO60: 60 mg/kg i.v. q7dx3, day 38 from inoculum
  TC-71 tumour weight, mean: 205.8 mg
EDO60: 60 mg/kg i.v. q7dx3, day 42 from inoculum
  TC-71 tumour weight, mean: 396.7 mg
EDO60: 60 mg/kg i.v. q7dx3, day 45 from inoculum
  TC-71 tumour weight, mean: 601.3 mg
EDO60: 60 mg/kg i.v. q7dx3, day 49 from inoculum
  TC-71 tumour weight, mean: 642.0 mg
EDO60: 60 mg/kg i.v. q7dx3, day 53 from inoculum
  TC-71 tumour weight, mean: 906.2 mg
EDO60: 60 mg/kg i.v. q7dx3, day 56 from inoculum
  TC-71 tumour weight, mean: 1549.1 mg
[1]
  TC-71 tumour weight, individual mice: 222.4 mg and 133.9 mg and 113.7 mg and 97.0 mg and 83.4 mg and 80.5 mg and 57.3 mg and 45.5 mg
  TC-71 tumour weight, mean: 104.2 mg
[2]
  TC-71 tumour weight, individual mice: 369.7 mg and 200.9 mg and 133.4 mg and 118.7 mg and 55.8 mg and 65.3 mg and 49.8 mg and 45.0 mg
  TC-71 tumour weight, mean: 129.8 mg
[3]
  TC-71 tumour weight, individual mice: 209.5 mg and 68.4 mg and 34.6 mg and 32.5 mg and 24.2 mg and 15.6 mg and 17.0 mg
  TC-71 tumour weight, mean: 51.7 mg
[4]
  TC-71 tumour weight, individual mice: 124.6 mg and 34.0 mg and 11.8 mg and 8.0 mg and 5.9 mg and 3.2 mg and 6.8 mg
  TC-71 tumour weight, mean: 25.6 mg
[5]
  TC-71 tumour weight, individual mice: 68.6 mg and 8.3 mg and 7.4 mg and 3.1 mg and 4.3 mg and 7.1 mg and 2.3 mg and 4.9 mg
  TC-71 tumour weight, mean: 13.2 mg
[6]
  TC-71 tumour weight, individual mice: 23.4 mg and 3.4 mg and 5.3 mg and 1.0 mg and 2.5 mg and 5.4 mg
  TC-71 tumour weight, mean: 7.3 mg
[7]
  TC-71 tumour weight, individual mice: 16.8 mg and 2.1 mg and 8.6 mg and 35.1 mg and 2.4 mg and 1.2 mg
  TC-71 tumour weight, mean: 11.0 mg
[8]
  TC-71 tumour weight, individual mice: 38.4 mg and 3.8 mg and 14.0 mg and 74.0 mg and 4.1 mg
  TC-71 tumour weight, mean: 26.9 mg
[9]
  TC-71 tumour weight, individual mice: 117.5 mg and 4.1 mg and 59.4 mg and 203.9 mg
  TC-71 tumour weight, mean: 65.7 mg
[10]
  TC-71 tumour weight, individual mice: 220.0 mg and 18.1 mg and 185.0 mg and 415.0 mg and 12.8 mg
  TC-71 tumour weight, mean: 126.3 mg
[11]
  TC-71 tumour weight, individual mice: 340.2 mg and 64.8 mg and 238.3 mg and 594.3 mg and 37.0 mg
  TC-71 tumour weight, mean: 199.8 mg
[12]
  TC-71 tumour weight, individual mice: 319.1 mg and 49.1 mg and 343.5 mg and 692.9 mg and 34.3 mg
  TC-71 tumour weight, mean: 225.9 mg
[13]
  TC-71 tumour weight, individual mice: 239.8 mg and 32.6 mg and 310.8 mg and 670.0 mg and 56.6 mg
  TC-71 tumour weight, mean: 204.0 mg
[14]
  TC-71 tumour weight, individual mice: 598.5 mg and 77.8 mg and 1030.8 mg and 1865.6 mg and 237.5 mg
  TC-71 tumour weight, mean: 601.9 mg
[15]
  TC-71 tumour weight, individual mice: 790.9 mg and 209.0 mg and 1741.1 mg and 2763.5 mg and 370.1 mg
  TC-71 tumour weight, mean: 944.7 mg
[16]
  TC-71 tumour weight, individual mice: 1094.7 mg and 481.3 mg and 3462.7 mg and 4619.8 mg
  TC-71 tumour weight, mean: 1657.1 mg
